Experimental data as given in patent US3939263A, “Methods of combatting insects and acarina using oxygenated derivatives of S-(tert-bulythio)methyl O,O-diethyl phosphorodithioate and phosphorothioate” (priority 1974, dated 1976).

How the values were obtained:
Southern Armyworm = assay: Soil Systemic Insecticide test on corn, Southern Armyworm; type: in vivo, Spodoptera eridania Cramer; conditions: Spodoptera eridania, 48 h; 100 ppm in soil; corn foliage after three weeks; 2 days; read-out: % Kill, Systemic Insecticide, Southern Armyworm
Experimental: Soil Systemic Insecticide Tests
Corn and cotton seed (three seeds each) are planted in treated soil (containing about 100 ppm. of the compound). Thirty milliliters of treated soil are placed in a peat container 5 × 5 × 5.5 cm., and three seeds each of corn and cotton planted. The containers are filled with an additional 30 ml. of treated soil. The treatments are removed to the greenhouse maintained about 26°C. without supplementary light. Water is supplied as needed. After three weeks, foliage of the corn is clipped and placed in glass petri dishes (90 mm. × 10 mm.) with moist filter (9 cm. Whatman No. 1) paper and ten third-instar southern armyworm (Spodoptera eridania Cramer) larvae about 8 mm. long. The dishes are covered and placed in the holding room with constant light at 26.7°C. and 60% r.h. for 2 days, when mortality counts are made.

Malaria Mosquito = Malaria Mosquito adult test, treated slide; type: in vivo, Anopheles quadrimaculatus Say; conditions: Anopheles quadrimaculatus, 24 h, adults, one day, read-out: % Kill, Malaria Mosquito
Experimental: Malaria Mosquito -- Anopheles quadrimaculatus Say -- Adult Test
Ten ppm. acetone solutions of test compounds are poured into wide-mouth 2-ounce jars each containing a microscope slide. The slides are removed from the test solution with forceps and laid horizontally to dry on a wide-mouth 4-ounce bottle. When dry, they are placed in the same 4-ounce bottle and 10 4-to 5-day-old mosquitoes of mixed sexes are added to each bottle. A piece of cotton gauze held on by an elastic band serves as a lid and wad of cotton soaked in 10% honey solution serves as food. Mortality counts are made after one day at 80°F., 50% r.h.

Bean Aphid = assay: Bean Aphid, sprayed nasturtium plants; type: in vivo, Aphis fabae Scopoli; conditions: Aphis fabae, 24 h, one day, read-out: % Kill, Bean Aphid
Experimental: Bean Aphid -- Aphis fabae Scopoli
Two-inch fiber pots, each containing a nasturtium plant 2 inches high and infested with 100 to 150 aphids 2 days earlier are placed on a 4 […] an Atomizer at 20 psi. air pressure. The spray tip is held about 6 inches from the plants and the spray directed so as to give complete coverage of the aphids and the plants. The sprayed plants are laid on their sides on white enamel trays. Mortality estimates are made after one day at 70°F., 50% r.h.

Southern Corn Rootworm = assay: Soil Insecticide test, Southern Corn Rootworm; type: in vivo, Diabrotica undecimpunctata howardi Barber; conditions: 144 h, 6 days, read-out: % Kill, Soil Insecticide, Southern Corn Rootworm; for mortality at 1 ppm: 1 ppm in soil; for mortality at 10 ppm: 10 ppm in soil; for mortality at 100 ppm: 100 ppm in soil
Experimental: Southern Corn Rootworm -- Diabrotica undecimpunctata howardi Barber
[…] Twelve and one-half milliliters of Littleton silt loam soil and 1 milliliter of millet seed (food for larvae) are added, the jars capped and the contents thoroughly mixed about 2 minutes on a rotary tumbler. Each jar then receives 5 ml. of tap water and ten southern corn rootworm larvae (Diabrotica undecimpunctata howardi Barber) 6 to 8 days old. The jars are loosely capped and placed in the holding room at 26.7°C. and 60% r.h. with constant light. Mortality counts are made after 6 days. Corrected percent mortality data is recorded on standard forms.

[1] = Mammalian toxicity, LD50 in mice; type: in vivo, male albino mice of the CFI strain; conditions: mouse, in vivo; male albino mice, corn oil, 0.5 ml./kg.
Experimental: (§1) For the tests reported in Table II, 20 male albino mice of the CFI strain, weighing approximately 18 grams to 20 grams are selected. The phosphates are readied for administration by preparing a solution or dispersion in corn oil (Mazola), the concentration of which is adjusted so that the total volume of the dose is 0.5 ml./kg. in every case. The initial solution is prepared by deciding upon the maximum dosage in mg./kg. to be administered and preparing 10 ml. of this solution of such a concentration that the desired dosage in mg./kg. is delivered when 0.5 ml. of the solution is administered for 20 grams of mouse body weight. Serial dilutions differing by a factor of two are then prepared for each lower dosage level. LD50 stands for the lethal dose in mg./kg. which kills 50% of the mice.

[2] = tested on: Boophilus microplus ticks; assay: Tick larvae, simulated spray in pipette; type: in vivo; conditions: Rhipicephalus microplus, 48 hours, read-out: % Kill, Ticks
Experimental: Ticks -- Boophilus microplus
In these tests, 20 larvae are enclosed in a pipette sealed at one end with a gauze material. A 10% acetone/water solution with the drug in it is then sucked through the pipette with a vacuum hose, thus simulating a spray system. The ticks are then held for 48 hours and mortality is determined.

insects = assay: Insecticidal activity compared with art compound; type: in vivo; conditions: versus O,O-diethyl S-(tert-butylsulfinyl)methyl phosphorodithioate
mice = assay: Mammalian toxicity, LD50 in mice; type: in vivo, male albino mice of the CFI strain; conditions: versus O,O-diethyl S-(tert-butylsulfinyl)methyl phosphorodithioate
Experimental: as §1

CCOP(=O)(OCC)SC[S+]([O-])C(C)(C)C (stereo not drawn) [O,O-diethyl S-(tert-butylsulfinyl)methyl Phosphorothioate]
mortality at 100 ppm (Southern Armyworm): 100% | mortality at 1 ppm (Malaria Mosquito): 40% | mortality at 10 ppm (Malaria Mosquito): 100% | mortality at 1 ppm (Bean Aphid): 100% | mortality at 10 ppm (Bean Aphid): 100% | mortality at 100 ppm (Bean Aphid): 100% | mortality at 1 ppm (Southern Corn Rootworm): 61% | mortality at 10 ppm (Southern Corn Rootworm): 100% | mortality at 100 ppm (Southern Corn Rootworm): 100% | LD50 [1]: 1.1 mg/kg | mortality at 100 ppm ([2]; 100 ppm): 100%

CCOP(=S)(OCC)SC[S+]([O-])C(C)(C)C (stereo not drawn) [O,O-diethyl S-(tert-butylsulfinyl)methyl phosphorodithioate, reference compound]
mortality at 100 ppm (Southern Armyworm): 100% | mortality at 1 ppm (Malaria Mosquito): 0% | mortality at 10 ppm (Malaria Mosquito): 80% | mortality at 1 ppm (Bean Aphid): 100% | mortality at 10 ppm (Bean Aphid): 100% | mortality at 100 ppm (Bean Aphid): 100% | mortality at 1 ppm (Southern Corn Rootworm): 95% | mortality at 10 ppm (Southern Corn Rootworm): 100% | mortality at 100 ppm (Southern Corn Rootworm): 100% | LD50 [1]: 3.4 mg/kg | mortality at 33 ppm [2]: 0%

CCOP(=S)(OCC)SCS(=O)(=O)C(C)(C)C [O,O-diethyl S-(tert-butylsulfonyl)methyl Phosphorodithioate]
mortality at 100 ppm (Southern Armyworm): 0% | mortality at 1 ppm (Malaria Mosquito): 50% | mortality at 10 ppm (Malaria Mosquito): 100% | mortality at 1 ppm (Bean Aphid): 100% | mortality at 10 ppm (Bean Aphid): 100% | mortality at 100 ppm (Bean Aphid): 100% | insecticidal activity relative to art compound (insects): equal to, and in some cases superior to, this art compound | mortality at 1 ppm (Southern Corn Rootworm): 100% | mortality at 10 ppm (Southern Corn Rootworm): 100% | mortality at 100 ppm (Southern Corn Rootworm): 100% | LD50 [1]: 14 mg/kg | toxicity to mammals (mice) relative to art compound (mice): much less toxic to mammals (mice) than the art compound

CCOP(=O)(OCC)SCS(=O)(=O)C(C)(C)C [O,O-diethyl S-(tert-butylsulfonyl)methyl Phosphorothioate]
mortality at 100 ppm (Southern Armyworm): 100% | mortality at 1 ppm (Malaria Mosquito): 0% | mortality at 10 ppm (Malaria Mosquito): 50% | mortality at 1 ppm (Bean Aphid): 100% | mortality at 10 ppm (Bean Aphid): 100% | mortality at 100 ppm (Bean Aphid): 100% | mortality at 1 ppm (Southern Corn Rootworm): 0% | mortality at 10 ppm (Southern Corn Rootworm): 100% | mortality at 100 ppm (Southern Corn Rootworm): 100% | LD50 [1]: 3.4 mg/kg | mortality at 33 ppm [2]: 0%
